The structures appear in SMILES notation.

What all share (assay type): functional
The test system of one assay is HOP-62. Put plainly: Cytotoxicity against human HOP62 cells assessed as cellular growth at 10 uM by SRB assay. On the technique in general: The SRB assay estimates cell density from bound dye.
The test system of the next assay is UO-31. Put plainly: Cytotoxicity against human UO31 cells assessed as cellular growth at 10 uM by SRB assay.
The next assay deals with LOX IMVI. Put plainly: Cytotoxicity against human LOXIMVI cells assessed as cellular growth at 10 uM by SRB assay.
The test system of another assay is OVCAR-3. The assay is described as follows: Cytotoxicity against human OVCAR3 cells assessed as cellular growth at 10 uM by SRB assay.
A short description of assay [1]: Cytotoxicity against human NCI-ADR-RES cells assessed as cellular growth at 10 uM by SRB assay.
A further assay relates to RXF 393. The assay is described as follows: Cytotoxicity against human RXF393 cells assessed as cellular growth at 10 uM by SRB assay.
The next assay deals with OVCAR-4. The assay is described as follows: Cytotoxicity against human OVCAR4 cells assessed as cellular growth at 10 uM by SRB assay.
Another assay concerns IGROV-1. The assay is described as follows: Cytotoxicity against human IGROV1 cells assessed as cellular growth at 10 uM by SRB assay.
In the next assay the test system is OVCAR-5. The assay is described as follows: Cytotoxicity against human OVCAR5 cells assessed as cellular growth at 10 uM by SRB assay.
Another assay relates to SF-268. Put plainly: Cytotoxicity against human SF268 cells assessed as cellular growth at 10 uM by SRB assay.
For another assay, the system named is SK-MEL-28. Put plainly: Cytotoxicity against human SK-MEL-28 cells assessed as cellular growth at 10 uM by SRB assay.
A further assay has as its system SR. Put plainly: Cytotoxicity against human SR cells assessed as cellular growth at 10 uM by SRB assay.
Another assay relates to HOP-92. Put plainly: Cytotoxicity against human HOP92 cells assessed as cellular growth at 10 uM by SRB assay.
For a further assay, the system named is MDA-MB-468. The assay is described as follows: Cytotoxicity against human MDA-MB-468 cells assessed as cellular growth at 10 uM by SRB assay.
In a further assay the test system is HCT-15. Put plainly: Cytotoxicity against human HCT15 cells assessed as cellular growth at 10 uM by SRB assay.
The test system of another assay is NCI-H322M. Put plainly: Cytotoxicity against human NCI-H322M cells assessed as cellular growth at 10 uM by SRB assay.
A further assay deals with HL-60(TB). The assay is described as follows: Cytotoxicity against human HL-60(TB) cells assessed as cellular growth at 10 uM by SRB assay.
The test system of a further assay is EKVX. Put plainly: Cytotoxicity against human EKVX cells assessed as cellular growth at 10 uM by SRB assay.
In another assay the test system is M14. The assay is described as follows: Cytotoxicity against human M14 cells assessed as cellular growth at 10 uM by SRB assay.
The next assay has as its system SK-OV-3. The assay is described as follows: Cytotoxicity against human SKOV3 cells assessed as cellular growth at 10 uM by SRB assay.

Regarding `O=C(NCCc1ccccc1)c1cc2cccc([N+](=O)[O-])c2[nH]1`, the Activity with HOP-62 turned out to be 90.84%; in the assay with UO-31 it was 62.13%; in the assay on LOX IMVI it was 85.8%; in the assay on OVCAR-3 it was 109%; in [1] it was 97.02%; in the assay on RXF 393 it was 105.34%. Further, the Activity in the assay on OVCAR-4 stood at 75.65%; in the assay with IGROV-1 it was 101.06%; with OVCAR-5 it was 116.02%; with SF-268, 106.93%; in the assay on SK-MEL-28, 99.12%; in the assay on SR it was 91.6%. Also, the Activity with HOP-92 was found to be 84.88%; with MDA-MB-468, 90.5%; in the assay on HCT-15 it was 86.79%; in the assay with NCI-H322M it was 115.94%; in the assay with HL-60(TB), 114.53%; in the assay with EKVX, 83.28%. The Activity with M14 came out at 100.89%; in the assay with SK-OV-3, 91.43%.

Turning to `COc1ccc(NC(=O)c2sc3nc4c(cc3c2N)C(=O)CCC4)cc1`, the Activity in the assay with HOP-62 is listed as 112.48%; in the assay on UO-31 it was 106.6%; in the assay on LOX IMVI, 100.6%; in the assay on OVCAR-3, 103.75%; in [1], 103.46%; with RXF 393, 101.13%. The Activity stood at 107.69% in the assay with OVCAR-4; 114.88% in the assay on IGROV-1; 99.71% with OVCAR-5; 109.11% in the assay with SF-268; 106.67% in the assay with SK-MEL-28; 113.2% with SR. Moreover, the Activity with HOP-92 is 78.47%; in the assay on MDA-MB-468 it was 87.19%; in the assay on HCT-15, 100.8%; in the assay with NCI-H322M, 57.79%; in the assay on HL-60(TB), 109.37%; with EKVX, 102.57%. For the same molecule, the values for the Activity with M14 and with SK-OV-3 were 103.89% and 115.02%, respectively.

Regarding `O=C(Nc1nc2ccccc2s1)c1ccc(F)cc1`, the Activity turned out to be 106.04% in the assay with HOP-62; 89.11% with UO-31; 100.61% with LOX IMVI; 103.91% in the assay on OVCAR-3; 95.74% in assay [1]; 106.77% in the assay with RXF 393. Also, the Activity worked out at 85.42% in the assay on OVCAR-4; 88.87% with IGROV-1; 100.92% in the assay on OVCAR-5; 114.42% in the assay on SF-268; 113.63% in the assay with SK-MEL-28; 98.39% with SR. Moreover, the Activity with HOP-92 is given as 78.65%; in the assay with MDA-MB-468, 94.15%; in the assay with HCT-15, 85.53%; with NCI-H322M, 92.49%; in the assay with HL-60(TB) it was 111.31%; in the assay with EKVX, 77.77%. In addition, the Activity stood at 109.51% in the assay on M14 and 108.36% in the assay on SK-OV-3.

Turning to `N#Cc1ccc(-n2nnc3ccccc32)cc1C#N`, the Activity in the assay with HOP-62 came out at 94.62%; with UO-31 it was 88.55%; with LOX IMVI, 99.41%; in the assay on OVCAR-3 it was 101.15%; in assay [1], 100.66%; in the assay on RXF 393, 100.39%. The Activity in the assay on OVCAR-4 is recorded as 110.46%; with IGROV-1, 103.62%; in the assay on OVCAR-5 it was 110.44%; in the assay with SF-268, 105%; in the assay with SK-MEL-28, 104.11%; in the assay on HOP-92, 103.19%. For the same molecule, the Activity with MDA-MB-468 amounted to 99.52%; with HCT-15, 99.78%; in the assay on NCI-H322M, 111.4%; in the assay with HL-60(TB), 107.7%; in the assay with EKVX, 79.18%; in the assay on M14, 106.26%. Also, in the assay on SK-OV-3, the Activity worked out at 98.76%.

Regarding `Nc1c(C(=O)NCc2ccccc2)sc2nc3c(cc12)C(=O)CCC3`, the Activity with HOP-62 came out at 115.1%; in the assay on UO-31, 109.24%; with LOX IMVI, 103.06%; in the assay with OVCAR-3, 115.33%; in [1] it was 100.02%; in the assay with RXF 393, 122.76%. The Activity in the assay with OVCAR-4 amounted to 117.19%; in the assay with IGROV-1, 124.94%; in the assay with OVCAR-5 it was 113.08%; in the assay with SF-268, 112.13%; in the assay with SK-MEL-28, 118.31%; in the assay on SR, 116.81%. The Activity in the assay on HOP-92 came out at 79.65%; in the assay with MDA-MB-468, 116.37%; in the assay with HCT-15 it was 105.31%; in the assay on NCI-H322M it was 123.15%; in the assay on HL-60(TB), 119.79%; in the assay with M14, 113.61%. In addition, in the assay with SK-OV-3, the Activity turned out to be 111.91%.

Consider `N#Cc1ccc(NC(=O)c2sc3nc4c(cc3c2N)C(=O)CCC4)cc1`, for which the Activity in the assay on HOP-62 is 100.94%; in the assay on UO-31, 103.56%; in the assay with LOX IMVI, 111.96%; in the assay on OVCAR-3, 113.89%; in assay [1], 105.72%; with RXF 393, 119.14%. Also, the Activity stood at 105.84% in the assay with OVCAR-4; 113.1% in the assay on IGROV-1; 89.16% with OVCAR-5; 102.29% with SF-268; 105.89% in the assay on SK-MEL-28; 95.57% in the assay on HOP-92. The Activity is reported as 97.58% in the assay with MDA-MB-468; 100.78% with HCT-15; 102.55% in the assay on NCI-H322M; 81.02% with HL-60(TB); 93.58% in the assay on EKVX; 105.98% in the assay with M14. Moreover, the Activity with SK-OV-3 came out at 106.21%.

As to `Cc1c(OCC(=O)c2ccccc2)ccc2c1oc(=O)c1ccccc12`, the Activity with HOP-62 worked out at 105.3%; with UO-31 it was 107.51%; in the assay with LOX IMVI it was 98.34%; in the assay with OVCAR-3 it was 102.65%; in assay [1], 100.54%; in the assay on RXF 393, 116.6%. Further, the Activity in the assay on OVCAR-4 was determined as 106.31%; in the assay with IGROV-1, 115.73%; in the assay on OVCAR-5 it was 108.12%; in the assay with SF-268 it was 100.71%; with SK-MEL-28 it was 113.56%; in the assay with HOP-92, 103.71%. Further, the Activity is on record as 62.01% in the assay with MDA-MB-468; 107.13% in the assay on HCT-15; 115.03% in the assay on NCI-H322M; 111.36% in the assay with HL-60(TB); 99.55% in the assay with EKVX; 118.87% in the assay on M14. In addition, the Activity in the assay on SK-OV-3 stood at 101.55%.

As for `Cc1ccc(Cl)cc1NC(=O)c1sc2nc3c(cc2c1N)C(=O)CCC3`, the Activity is recorded as 60.95% in the assay on HOP-62; 83.44% with UO-31; 68.07% in the assay on LOX IMVI; 22.12% in the assay on OVCAR-3; 43.81% in assay [1]; 42.15% in the assay with RXF 393. For the same molecule, the Activity in the assay with OVCAR-4 turned out to be 90.15%; with IGROV-1 it was 75.72%; in the assay with OVCAR-5, 94.25%; in the assay with SF-268, 74.86%; in the assay with SK-MEL-28 it was 67.01%; with SR, 68.85%. Moreover, the Activity worked out at 56.86% in the assay on HOP-92; 8.44% in the assay with MDA-MB-468; 45.91% with HCT-15; 95.72% in the assay with NCI-H322M; 82.22% with HL-60(TB); 75.28% in the assay on EKVX. Besides, the Activity was 62.9% in the assay with M14 and 42.36% in the assay on SK-OV-3.
